In US6534543B2, “Oxa acids and related compounds for treating skin conditions” (Avon Products, Inc., priority 1996, dated 2003):

Test system: stratum corneum desquamation
Assay: normalizing effect on stratum corneum desquamation
From the text: Oxa acids easily dissolve in water to concentrations of at least 20 to 30% by weight. […] Dicarboxylic acids of moderate to long chain length, which have straight, all-carbon backbones, are virtually insoluble in water and other aesthetically acceptable vehicles. This severely limits the choice of delivery vehicles for the dicarboxylic acids. The desquamatory activity of such dicarboxylic acids is also questionable.

In the case of `O=C(O)CCCCCCCCCCC(=O)O` [dodecanedioic acid], the “normalizing effect on stratum corneum desquamation beyond that of vehicle alone” value (formulation containing 5% dodecanedioic acid) is reported as “do not produce any normalizing effect” and the “normalizing effect on stratum corneum desquamation beyond that of vehicle alone” value (formulation containing 10% dodecanedioic acid) is reported as “do not produce any normalizing effect”.
